Legend:
[1] = system: tomato leaves; assay: Hypersensitive response like symptoms on tomato leaves under sodium dithionite coated Whatman filter paper stickers; format: in vivo; settings: tomato leaves (Pusa Rubi), stickers on adaxial surface for 3 hours, followed till 24 h
Protocol: To check whether sodium dithionite is able to induce plants innate immune response, square stickers from Whatman filter papers were coated with sodium dithionite under anoxic conditions (FIG. 4). These stickers were stacked on the adaxial surface of tomato leaves for 3 hours (FIG. 5). The variety of the tomato plant used for the purposes of present disclosure is Pusa Rubi accessed from Indian Agricultural Research Institute, New Delhi, India.

[2] = system: nitric oxide (NO); format: in vivo, tomato
[3] = system: salicylic acid (SA); assay: Salicylic acid (SA) estimation in distal leaves; settings: distal leaf samples, 6h post-sodium dithionite treatment, vs control plants
Protocol: Since salicylic acid (SA) is important in the induction of systemic acquired resistance in plants, the distal leaf samples were collected for SA estimation at 6h post-sodium dithionite treatment.

Compound: O=S([O-])S(=O)[O-].[Na+].[Na+] [sodium dithionite]
- hypersensitive response like symptoms [1]: Hypersensitive response like symptoms started developing just after the treatment and was increased till 24 h
- NO levels (DAF-FM DA) after further treatment with avirulent Pseudomonas syringae ([2]; in vivo): Larger spots representing bursts of NO were observed
- NO production (DAF-FM DA) ([2]; tomato leaves treated with sodium dithionite strips alone): Increased microbursts of NO
- SA accumulation in distal leaves [3]: significant accumulation of SA
